Data set [1] deals with Transcription factor Jun (Gallus gallus) (UniProt P18870). The data set is described as follows: Inhibition of Jun-mediated oncogenic transformation in chicken embryo fibroblasts.
Data set [2] addresses Proto-oncogene tyrosine-protein kinase Src (Gallus gallus) (UniProt P00523). Kind of data set: Inhibition of Src-mediated oncogenic transformation in chicken embryo fibroblasts.
The species entered for another data set is Gallus gallus. Kind of data set: Inhibition of Myc/Max heterodimerization in chicken embryo fibroblasts assessed as inhibition of oncogenically transformed cell foci formation at 20 uM.
A short description of data set [3]: Inhibition of Myc/Max heterodimerization at 20 uM by FRET assay.
The nature of data set [4]: Cytotoxicity against chicken embryo fibroblasts. More on the design: species or system Gallus gallus.

Activity calls are given as the source filed them. The rule behind the calls is not given here.

Chain of Transcription factor Jun (Gallus gallus) (P18870 whole entry): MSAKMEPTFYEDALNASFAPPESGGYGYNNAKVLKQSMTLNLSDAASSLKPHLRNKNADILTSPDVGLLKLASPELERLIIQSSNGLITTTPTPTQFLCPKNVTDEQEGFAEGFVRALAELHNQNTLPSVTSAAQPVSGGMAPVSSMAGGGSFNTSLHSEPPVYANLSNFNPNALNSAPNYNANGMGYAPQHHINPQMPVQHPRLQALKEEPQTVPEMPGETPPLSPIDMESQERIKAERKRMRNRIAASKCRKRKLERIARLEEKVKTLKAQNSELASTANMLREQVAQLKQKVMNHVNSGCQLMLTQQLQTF

The inhibition is the drop in the measured response relative to a control, in per cent. Turning to `CNC(=O)[C@@H]1CN(C(=O)CCCNC(=O)OC(C)(C)C)C[C@H]1C(=O)NC[C@H](NS(=O)(=O)c1cc(Cl)sc1Cl)C(=O)OC(C)(C)C`, the inhibition entry in data set [1] and in data set [2] was “inactive” in each case. In addition, in the data set filed under Gallus gallus, the inhibition result was “Active”. This molecule returned an inhibition in data set [3] of 8%.

For `CCCCS(=O)(=O)N[C@@H](CNC(=O)[C@@H]1CN(C(=O)CCCCCNC(=O)OC(C)(C)C)C[C@H]1C(=O)O)C(=O)OC(C)(C)C`, the inhibition result in data set [1] and in data set [2] was “inactive” each time. For the same molecule, the inhibition entry in the data set filed under Gallus gallus is “Active”. In data set [3], this molecule registered an inhibition of 72%.

On to `CNC(=O)[C@@H]1CN(C(=O)CCCCCNC(=O)OC(C)(C)C)C[C@H]1C(=O)NC[C@H](NS(=O)(=O)c1cc(Cl)sc1Cl)C(=O)OC(C)(C)C` [MYCMYCIN 2], for which the inhibition entry in data set [1] is “inactive”. In addition, the Activity entry in data set [4] is given as “Non-toxic”. Also, the inhibition entry in the data set listed under Gallus gallus is “Active”. The inhibition in data set [3] is 18%.

`CN(C)c1cccc2c(S(=O)(=O)N[C@@H](CNC(=O)[C@@H]3CN(C(=O)CCC4CCN(C(=O)OC(C)(C)C)CC4)C[C@H]3C(=O)O)C(=O)OC(C)(C)C)cccc12`: the inhibition entry in data set [1] and in data set [2] was “inactive” each time. In the data set listed under Gallus gallus, the inhibition entry is “Active”. This molecule also had an inhibition in data set [3] of 75%.

Consider `CNC(=O)[C@@H]1CN(C(=O)CCC2CCN(C(=O)OC(C)(C)C)CC2)C[C@H]1C(=O)NCCC(=O)OC(C)(C)C`, for which the inhibition result in data set [1] and in data set [2] was “inactive” each time. Further, the inhibition result in the data set filed under Gallus gallus is “Active”. This molecule showed an inhibition in data set [3] of 30%.

For the molecule `Cc1cc(C)c(S(=O)(=O)N[C@@H](CNC(=O)[C@@H]2CN(C(=O)CC3CCN(C(=O)OC(C)(C)C)CC3)C[C@H]2C(=O)O)C(=O)OC(C)(C)C)c(C)c1` [MYCMYCIN 1], the Activity entry in data set [4] is on record as “Non-toxic”. In addition, in data set [2], the inhibition entry was “inactive”. The inhibition result in the data set listed under Gallus gallus is “Active”. In addition, the inhibition in data set [3] was determined as 66%.

For `CNC(=O)[C@@H]1CN(C(=O)CCCCCNC(=O)OC(C)(C)C)C[C@H]1C(=O)NC[C@H](NS(=O)(=O)CCc1cccc2ccccc12)C(=O)OC(C)(C)C`, the inhibition result in data set [1] and in data set [2] was “inactive” in each case. The inhibition entry in the data set filed under Gallus gallus was “Active”. The same molecule had an inhibition in data set [3] of 24%.

Regarding `CNC(=O)[C@@H]1CN(C(=O)CCC2CCN(C(=O)OC(C)(C)C)CC2)C[C@H]1C(=O)NC[C@H](NS(=O)(=O)CCc1cccc2ccccc12)C(=O)OC(C)(C)C`, the inhibition entry in data set [1] and in data set [2] was “inactive” in each case. Also, the inhibition result in the data set listed under Gallus gallus is “Active”. The inhibition in data set [3] worked out at 43%.

Values taken from ChEMBL document CHEMBL1156080, “Small molecule inhibitors of Myc/Max dimerization and Myc-induced cell transformation” (Bioorg Med Chem Lett, 2009).
